Source: patent publication US20240199546A1, “INHIBITORS OF SOLUTE CARRIER FAMILY 6A MEMBER 19 (SLC6A19) AND METHODS OF USE THEREOF” (Maze Therapeutics, Inc., priority 2022, published 2024)

Key:
human SLC6A19 and TMEM27 [1] = target: T1, human SLC6A19 and TMEM27 (Homo sapiens, UniProt Q695T7); experiment: 13C6,15N-isoleucine uptake in CHO cells with doxycycline-inducible expression of human SLC6A19 and TMEM27, RapidFire mass spectrometry (Example B-2); type: cell-based; settings: read-out: SLC6A19_RapidFire Uptake Assay IC50
T1 construct: expressed in transfected cells
T1 sequence (Q695T7 1-634): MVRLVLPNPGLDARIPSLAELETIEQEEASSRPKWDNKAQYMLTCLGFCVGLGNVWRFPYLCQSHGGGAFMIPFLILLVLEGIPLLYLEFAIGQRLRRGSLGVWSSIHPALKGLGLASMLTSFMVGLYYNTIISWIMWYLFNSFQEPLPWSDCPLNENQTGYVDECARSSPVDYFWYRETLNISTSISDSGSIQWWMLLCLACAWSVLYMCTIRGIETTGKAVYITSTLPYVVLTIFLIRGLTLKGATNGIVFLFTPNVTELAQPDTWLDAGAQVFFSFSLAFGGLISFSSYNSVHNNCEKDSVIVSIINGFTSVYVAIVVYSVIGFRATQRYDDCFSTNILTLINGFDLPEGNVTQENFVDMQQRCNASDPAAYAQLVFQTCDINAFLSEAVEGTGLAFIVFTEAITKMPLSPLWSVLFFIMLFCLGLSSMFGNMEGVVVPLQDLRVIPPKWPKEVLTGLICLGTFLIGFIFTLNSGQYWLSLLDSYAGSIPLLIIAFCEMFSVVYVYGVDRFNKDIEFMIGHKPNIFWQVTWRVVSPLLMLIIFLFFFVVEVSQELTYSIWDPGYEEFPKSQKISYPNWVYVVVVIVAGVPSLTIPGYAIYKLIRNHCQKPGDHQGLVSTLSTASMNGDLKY
T1 sequence (Q9HBJ8 15-222 partner): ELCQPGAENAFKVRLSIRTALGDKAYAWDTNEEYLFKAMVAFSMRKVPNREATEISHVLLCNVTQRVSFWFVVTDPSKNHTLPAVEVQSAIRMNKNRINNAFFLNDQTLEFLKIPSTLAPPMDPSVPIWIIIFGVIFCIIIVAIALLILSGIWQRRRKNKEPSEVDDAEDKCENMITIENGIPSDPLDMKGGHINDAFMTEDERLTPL
Procedure, shortened: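 CHO cells induced overnight with doxycycline to express human SLC6A19 plus TMEM27; 20 min preincubation with compound (10-point 2-fold series, duplicate) at 37 °C in HEPES buffer pH 7.2, then 20 min with 13C6,15N-isoleucine. Intracellular label quantified by RapidFire MS against 13C-leucine standard; positive control defined 100% inhibition.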

human SLC6A19 and TMEM27 [2] = target: T1, human SLC6A19 and TMEM27; experiment: Radiolabelled (3H) leucine uptake in CHO cells with doxycycline-inducible expression of human SLC6A19 and TMEM27 (Example B-1); type: cell-based; settings: CHO cells with doxycycline-inducible expression of human SLC6A19 and TMEM27, read-out: SLC6A19_Radioligand Uptake Assay IC50
Procedure, shortened: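 CHO cells were induced with doxycycline for 18 h at 37 °C, washed in HBSS, then exposed to compounds for 1 h: 8-point, 3-fold dilutions in duplicate, 0.5% DMSO final. Uptake measured by scintillation counting after 2 h shaking. Activity normalized with positive control as 0% and DMSO as 100%.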

CC1(C(=O)NCc2cc3cc(Cl)c(CCc4ccon4)cc3[nH]2)CC1 [Compound 150, N-((5-chloro-6-(2-(isoxazol-3-yl)ethyl)-1H-indol-2-yl)methyl)-1-methylcyclopropane-1-carboxamide]
IC50 (human SLC6A19 and TMEM27 [1]): 36 nM | IC50 (human SLC6A19 and TMEM27 [2]): 120 nM

O=C(NCc1cc2ccc(OCc3ccon3)cc2[nH]1)N1CCCCC1 [Compound 123, N-((6-(isoxazol-3-ylmethoxy)-1H-indol-2-yl)methyl)piperidine-1-carboxamide]
IC50 (human SLC6A19 and TMEM27 [1]): 576 nM | IC50 (human SLC6A19 and TMEM27 [2]): 340 nM
